Test results from patent US20230405002A1, “COMBINATIONS OF DIACYLGLYCEROL ACYLTRANSFERASE 2 INHIBITORS AND ACETYL-COA CARBOXYLASE INHIBITOR” (Pfizer Inc., priority 2020, published 2023).

Assays:
Format in all cases: in vivo, rat
[1] = tested on: Western diet fed Sprague Dawley rats; assay: Compound A / Compound D study in Western diet fed rats: fed and fasted plasma triglycerides; conditions: for reduction of plasma TG in the fed state / increase in plasma TG in the fed state: relative to vehicle-administered Western diet fed rats; for reduction of fasted plasma TG / increase in fasted plasma TG: relative to vehicle administered Western diet fed rats
Description: (§1) A randomized, vehicle-controlled, 8-parallel arm study was conducted in male Sprague-Dawley rats (Charles River (Boston, MA)) to obtain circulating and hepatic TG levels. Standard laboratory conditions were used to house 96 rats (˜200 g); they were double housed and kept under 12:12-hour reverse light-dark schedule (lights off at 8:00 AM). Rats were randomized into chow or Western diet groups and dose groups upon arrival and were given a 14-day lead-in period on either standard rat chow or Western diet prior to the start of the study. Standard Laboratory Rodent chow diet, 5053, was from LabDiet (PMI, St Louis, Missouri). Western Diet, D12079Bi, was from Research Diets (New Brunswick, NJ).
(§2) For these studies, vehicle was prepared to make a 0.5% (wt/volume) of methyl cellulose (MC, Sigma Aldrich, 274429) in deionized water.
Fed plasma analytes: Blood for determining fed plasma TG concentrations was collected 2 hours post dose (2 hours into the dark cycle) via lateral tail vein, transferred to BD Microtainer tubes coated with dipotassium ethylenediaminetetraacetic acid (K2EDTA) (PN365974), and centrifuged at 4° C. The resulting plasma samples were then analyzed on a Siemens Chemistry XPT clinical analyzer (Malven, PA) using Siemens triglycerides_2 assay reagents (ref 10335892).
Fasted plasma analytes: Blood for determining fasted plasma TG was collected after a 4 hour fast, 2 hours post-dose (2 hours into the dark cycle) via lateral tail vein, transferred to BD Microtainer tubes coated with K2EDTA (PN365974), and centrifuged at 4° C. The resulting plasma samples were then analyzed on a Siemens Chemistry XPT clinical analyzer (Malven, PA) using Siemens triglycerides 2 assay reagents (ref 10335892).

[2] = tested on: Western diet fed Sprague Dawley rats; assay: Compound A / Compound D study in Western diet fed rats: hepatic triglyceride (steatosis); conditions: relative to vehicle administered Western diet fed rats
Description: as §1, §2
On the last day of the study (Day 28), rats were sacrificed for tissue collection after a 4 hour fast, 2 hours post-dose: two hours post-dose, blood for determining plasma analytes was collected via lateral tail vein and then the animals were sacrificed by CO2 asphyxiation. Blood was transferred to BD Microtainer tubes coated with K2EDTA (PN365974), centrifuged at 4° C. and the plasma transferred to a 96-well microtitre plate and stored at −20° C. Livers were rapidly removed, freeze-clamped in a Wollenberg clamp pre-cooled in liquid N2 individually wrapped in aluminum foil and subsequently stored at −80° C.
Tissue pulverization: Frozen livers were rapidly pulverized on an aluminum block cooled in liquid N2, ensuring the tissue remained frozen throughout the pulverization. The pulverized tissues were transferred and stored in 7 mL polypropylene conical tubes at −80° C. until analysis.
Extraction for hepatic triglyceride: Approximately 50 to 100 mg of pulverized tissue was added to a 2 mL lysing matrix D tube (MP Bio) containing 800 μL ice cold 1:1 CHCl3:MEOH. Samples were immediately extracted at 4° C. using Qiagen Tissue Lyser II (Qiagen Cat No. 85300) for 4 minutes at 30 Hz. The homogenate was then transferred to 13×100 mm glass tubes and placed on ice. The lysis tubes were then rinsed with 800 μL of 1:1 CHCl3:MeOH, vortexed for 30 seconds and added to the 13×100 mm glass tubes. While on ice, 2.4 ml of 100% CHCl3 was added to all glass vials to bring the ratio of CHCl3:MeOH to 4:2. Samples were then placed in the −20° C. freezer overnight. On the following day, 1.75 mL 1 M KCl H2O was added to bring the ratio to 4:2:1.75 ratio CHCl3:MeOH:H2O. Samples were then vortexed for 30 seconds and centrifuged at 1500 rpm×15 min., at 4° C. After centrifugation, the organic phase was transferred to a fresh 13×100 mm extraction tube, dried down at 37° C. under N2 and re-suspended in 750 μL CHCl3. […]

[3] = tested on: ACC1, FASN, SCD1, PCSK9 and SREBP-1c; assay: Compound A / Compound D study in Western diet fed rats: hepatic lipogenic gene expression (qPCR); conditions: relative to Western diet fed vehicle treated rats
Description: as §1
Another portion of the pulverized liver was processed and analyzed for lipogenic gene expression. Rat taqman probes against ACC1, FASN, SCD1, PCSK9 and SREBP-1c were all assessed using Actb as housekeeping gene on qPCR.

[4] = high dose (Compound A 10 mg/kg QD, Compound D 30 mg/kg BID)
[5] = low dose (Compound A 1 mg/kg QD, Compound D 5 mg/kg BID)
[6] = high dose (Compound A 10 mg/kg QD)
[7] = low dose (Compound A 1 mg/kg QD)

CCOc1cccnc1Oc1cncc(-c2ncc(C(=O)N[C@H]3CCOC3)cn2)c1 [Compound D, (S)-2-(5-((3-ethoxypyridin-2-yl)oxy)pyridin-3-yl)-N-(tetrahydrofuran-3-yl)pyrimidine-5-carboxamide]
reduction of plasma TG in the fed state [1, 4]: 63% | reduction of fasted plasma TG ([1]; high dose (Compound D 30 mg/kg BID)): 35% | reduction of plasma TG in the fed state [1, 5]: 55% | reduction of fasted plasma TG ([1]; low dose (Compound D 5 mg/kg BID)): 20% | reduction in steatosis (hepatic triglyceride) [2, 4]: 30% | reduction in steatosis (hepatic triglyceride) [2, 5]: 25% | hepatic lipogenic gene expression (ACC1, FASN, SCD1, SREBP1, PCSK9) [3]: decreased expression of all of the lipogenic genes

COc1cc(C(=O)N2CCC3(CC2)CC(=O)c2c(cnn2C(C)C)C3)cc(-c2ccc(C(=O)O)cc2)n1 [Compound A, 4-(4-(1-isopropyl-7-oxo-1,4,6,7-tetrahydrospiro[indazole-5,4′-piperidine]-1′-carbonyl)-6-methoxypyridin-2-yl)benzoic acid]
increase in fasted plasma TG [1, 6]: 1.7 fold | increase in plasma TG in the fed state [1, 6]: 1.3 fold | increase in fasted plasma TG [1, 7]: 2.4 fold | increase in plasma TG in the fed state [1, 7]: 1.7 fold | reduction in steatosis (hepatic triglyceride) [2, 4]: 53% | reduction in steatosis (hepatic triglyceride) [2, 5]: 36% | hepatic lipogenic gene expression (ACC1, FASN, SCD1, SREBP1, PCSK9) [3]: trended to further increase
